# According to patent US9181288B2, “Azepane derivatives and methods of treating hepatitis B infections” (Novira Therapeutics, Inc., priority 2014, dated 2015):
# Key:
# [1] = tested on: HBV replication in HepG2-2.2.15 cells; experiment: Inhibition of HBV replication dot-blot assay; type: cell-based; settings: Hepatitis B virus, 144 h, six days, reduction in HBV DNA levels
# Protocol: Compounds active in the HBV assembly assay are tested for their activity and toxicity in cellular assay. In the first anti-viral assay, the ability of compounds to inhibit HBV replication in an HBV-producing hepatoma cell line using the dot-blot method is evaluated.
# Briefly, confluent monolayers of HepG2-2.2.15 cells are incubated with complete medium containing various concentrations of a test compound. Three days later, the culture medium is replaced with fresh medium containing the appropriately diluted test compound. Six days following the initial administration of the test compound, the cell culture supernatant is collected, and cell lysis is performed. The samples are applied onto Nylos membranes and DNA is immobilized to the membrane by UV cross-linking. After pre-hybridization, the HBV probe is added and the hybridization is performed overnight. The membranes are exposed to the Kodak films; antiviral activity is calculated from the reduction in HBV DNA levels (EC50). The EC50 for antiviral activity is calculated from the dose response curves of active compounds. Assay performance over time is monitored by the use of the standard positive control compounds ETV, BAY 41-4109, and HAP-1.
# Selected compounds were tested for their activity and toxicity in cellular assay. In the first anti-viral assay, the ability of compounds to inhibit HBV replication in an HBV-producing hepatoma cell line using the dot-blot method was evaluated.
# Confluent monolayers of HepG2-2.2.15 cells were incubated with complete medium containing various concentrations of a test compound. Three days later, the culture medium was replaced with fresh medium containing the appropriately diluted test compound. Six days following the initial administration of the test compound, the cell culture supernatant was collected, and cell lysis was performed. The samples were applied onto Nylos membranes and DNA was immobilized to the membrane by UV cross-linking. After pre-hybridization, the HBV probe was added and the hybridization was performed overnight. The membranes were exposed to the Kodak films; antiviral activity was calculated from the reduction in HBV DNA levels (EC50). The EC50 for antiviral activity was calculated from the dose response curves of active compounds. Assay performance over time was monitored by the use of the standard positive control compounds ETV, BAY 41-4109, and HAP-1.
# [2] = target: HBV C150Bo capsid protein (mutant C150 HBV core protein labeled with BODIPY-FL) (Hepatitis B virus genotype D subtype adw, UniProt P03147, C107A/C48A/C61A/R150C); experiment: HBV assembly assay (fluorescence quenching in vitro capsid assembly); type: biochemical; settings: at about 10 μM; 50 mM Hepes pH 7.5, 150 mM NaCl, 1 hour room temperature
# Chain of HBV C150Bo capsid protein (mutant C150 HBV core protein labeled with BODIPY-FL) (P03147 1-150 C48A/C61A/C107A/R150C): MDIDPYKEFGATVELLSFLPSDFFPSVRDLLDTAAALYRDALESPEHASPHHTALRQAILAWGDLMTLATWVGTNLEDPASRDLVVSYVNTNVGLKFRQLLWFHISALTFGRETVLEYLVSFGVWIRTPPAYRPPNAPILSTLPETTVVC
compound,measurement,setting,value
CC1(O)CCCCN(S(=O)(=O)c2cc(C(=O)Nc3ccc(F)c(Cl)c3)ccc2F)C1 (stereo not drawn) [Compound 1890],inhibition at 10 µM,[1],> 50%
same,Activity (HBV assembly assay),[2],+ (‘+’ indicates >50% activity at about 10 μM)
CC(=O)O[C@@H]1CC[C@H](OC(C)=O)CN(S(=O)(=O)c2cc(C(=O)Nc3ccc(F)c(Cl)c3)ccc2F)C1 [Compound 2626_D2],inhibition at 10 µM,[1],> 50%
same,Activity (HBV assembly assay),[2],+ (‘+’ indicates >50% activity at about 10 μM)
O=C(Nc1cc(F)c(F)c(F)c1)c1ccc(F)c(S(=O)(=O)N2CCCC(O)C(F)(F)C2)c1 (stereo not drawn) [Compound 2199],inhibition at 10 µM,[1],> 50%
same,Activity (HBV assembly assay),[2],+ (‘+’ indicates >50% activity at about 10 μM)
O=C(Nc1ccc(F)c(Cl)c1)c1ccc(F)c(S(=O)(=O)N2CCOC[C@H](O)C2)c1 [Compound 1893_E2],inhibition at 10 µM,[1],> 50%
same,Activity (HBV assembly assay),[2],+ (‘+’ indicates >50% activity at about 10 μM)
O=C(Nc1cc(F)c(F)c(F)c1)c1ccc(F)c(S(=O)(=O)N2CCOCC(O)C2)c1 (stereo not drawn) [Compound 1895],inhibition at 10 µM,[1],> 50%
same,Activity (HBV assembly assay),[2],+ (‘+’ indicates >50% activity at about 10 μM)
O=C(Nc1ccc(F)c(F)c1)c1ccc(F)c(S(=O)(=O)N2CC(O)CC3CC3C2)c1 (stereo not drawn) [Compound 2547],inhibition at 10 µM,[1],> 50%
same,Activity (HBV assembly assay),[2],+ (‘+’ indicates >50% activity at about 10 μM)
CC1(O)COCCN(S(=O)(=O)c2cc(C(=O)Nc3ccc(F)c(Cl)c3)ccc2F)C1 (stereo not drawn) [Compound 1986],inhibition at 10 µM,[1],> 50%
same,Activity (HBV assembly assay),[2],+ (‘+’ indicates >50% activity at about 10 μM)
"O=C(Nc1ccc(F)c(Cl)c1)c1ccc(F)c(S(=O)(=O)N2C[C@H](O)CC[C@H](O)C2)c1 [Compound 2433_D2, N-(3-chloro-4-fluoro-phenyl)-3-(3,6-dihydroxyazepan-1-yl)sulfonyl-4-fluoro-benzamide]",inhibition at 10 µM,[1],> 50%
same,Activity (HBV assembly assay),[2],+ (‘+’ indicates >50% activity at about 10 μM)
O=C(Nc1cc(F)c(F)c(F)c1)c1ccc(F)c(S(=O)(=O)N2CCC[C@@H](O)C(F)C2)c1 (stereo partly drawn) [Compound 1829_D1],inhibition at 10 µM,[1],> 50%
same,Activity (HBV assembly assay),[2],+ (‘+’ indicates >50% activity at about 10 μM)
O=C(Nc1ccc(F)c(F)c1)c1ccc(F)c(S(=O)(=O)N2CCCC(F)[C@H](O)C2)c1 (stereo partly drawn) [Compound 1821_D2],inhibition at 10 µM,[1],> 50%
same,Activity (HBV assembly assay),[2],+ (‘+’ indicates >50% activity at about 10 μM)
CC1(O)CCCN(S(=O)(=O)c2cc(C(=O)Nc3cc(F)c(F)c(F)c3)ccc2CF)CC1 (stereo not drawn) [Compound 1829-2],inhibition at 10 µM,[1],> 50%
same,Activity (HBV assembly assay),[2],+ (‘+’ indicates >50% activity at about 10 μM)
O=C(Nc1ccc(F)c(Cl)c1)c1ccc(F)c(S(=O)(=O)N2CCOCC(O)(C3CC3)C2)c1 (stereo not drawn) [Compound 1989],inhibition at 10 µM,[1],> 50%
same,Activity (HBV assembly assay),[2],+ (‘+’ indicates >50% activity at about 10 μM)
O=C(Nc1ccc(F)c(F)c1)c1ccc(CF)c(S(=O)(=O)N2CCCC(O)CC2)c1 (stereo not drawn) [Compound 1917],inhibition at 10 µM,[1],> 50%
same,Activity (HBV assembly assay),[2],+ (‘+’ indicates >50% activity at about 10 μM)
O=C(Nc1cc(F)c(F)c(F)c1)c1ccc(CF)c(S(=O)(=O)N2CCCCCC2)c1 [Compound 2002],inhibition at 10 µM,[1],> 50%
same,Activity (HBV assembly assay),[2],+ (‘+’ indicates >50% activity at about 10 μM)
O=C(Nc1cc(F)c(F)c(F)c1)c1ccc(F)c(S(=O)(=O)N2CCCC(O)CC2)c1 (stereo not drawn) [Compound 1765],inhibition at 10 µM,[1],> 50%
same,Activity (HBV assembly assay),[2],+ (‘+’ indicates >50% activity at about 10 μM)
O=C(Nc1ccc(F)c(Cl)c1)c1ccc(F)c(S(=O)(=O)N2CCCC(O)C(O)C2)c1 (stereo not drawn) [Compound 1909],inhibition at 10 µM,[1],> 50%
COc1ccc(C(=O)Nc2ccc(F)c(Cl)c2)cc1S(=O)(=O)N1CCCC(O)C(F)C1 (stereo not drawn) [Compound 2114_D2],Activity (HBV assembly assay),[2],+ (‘+’ indicates >50% activity at about 10 μM)
O=C(Nc1ccc(F)c(Cl)c1)c1ccc(CF)c(S(=O)(=O)N2CCCC(O)CC2)c1 (stereo not drawn) [Compound 1916],Activity (HBV assembly assay),[2],+ (‘+’ indicates >50% activity at about 10 μM)
